Measured values: patent US11180455B2, “Compounds for the treatment of pain” (priority 2018, dated 2021)
Like-named read-outs stand apart in the source and are kept apart here.

What was measured:
Male Sprague-Dawley rats [1] = settings: maximum pCO2 within 2 hours of administration, rat, subcutaneous
Male Sprague-Dawley rats [2] = format: in vivo; settings: rat
human μ opioid receptor = human μ opioid receptor (Homo sapiens (Human), UniProt P35372); assay: Alternate functional activity ([35S]GTPγS binding, SPA) assay; format: biochemical; settings: alternate [35S]GTPγS binding assay (SPA beads), CHO cell membranes expressing human μ opioid receptor
Experimental: The [^35S]GTPγS assay measures the functional properties of a compound by quantifying the level of G-protein activation following agonist binding in studies using stably transfected cells, and is considered to be a measure of the efficacy of a compound. Membranes from CHO (Chinese Hamster Ovary) cells that stably expressed one type of the cloned human opioid receptor human were used in the experiments. The assay buffer consisted of 50 mM Tris-HCl, pH 7.4, 3 mM MgCl2, 0.2 mM EGTA, 5 μM GDP, and 100 mM NaCl. CHO cell membranes stably expressing the human p opioid receptor were pre-incubated with scintillation proximity assay beads from PerkinElmer® (WGA PVT SPA) for 30 minutes, at 8 µg membrane and 350 µg beads in a volume of 0.1 mL per reaction. In a final volume of 0.2 mL, 11 different concentrations of each test compound were incubated with the membrane-SPA bead mixture and a final concentration of 0.020 nM [35S]GTPγS for 1.5 hours with gentle shaking. Reactions were then incubated for 5 hours. Data are the mean EC50 values±S.E.M. EC50 values (nM) for compounds 12, 16, 19, 20, 149, 151, 152, 157, 160, 161, 164-169, 172, 173, 180-197, and 199-207 are shown in Table 1.

## CCOC1(c2cccc(C(N)=O)c2)C2CCCC1CNC2 [Compound 160, 3-((1R,5S,9r)-9-ethoxy-3-azabicyclo[3.3.1]nonan-9-yl)benzamide]
Male Sprague-Dawley rats [1]
  <60 mmHg @ 10X CFA MEMD: + (resulted in a maximum pCO2 value of less than 60 mmHg within 2 hours of administration)
Male Sprague-Dawley rats [1]; 100X CFA MEMD dose
  <60 mmHg @ 100X CFA MEMD: + (resulted in a maximum pCO2 value of less than 60 mmHg within 2 hours of administration)

## COC1(c2cccc(C(N)=O)c2)C2CCCC1CN(C1CC3(COC3)C1)C2.O=C(O)C[C@H](O)C(=O)O [Compound 133, 3-((1R,5S,9r)-9-methoxy-3-(2-oxaspiro[3.3]heptan-6-yl)-3-azabicyclo[3.3.1]nonan-9-yl)benzamide (S)-2-hydroxysuccinate]
Male Sprague-Dawley rats [1]
  <60 mmHg @ 10X CFA MEMD: + (resulted in a maximum pCO2 value of less than 60 mmHg within 2 hours of administration)

## CO[C@@]1(c2ccnc(C(N)=O)c2)[C@@H]2CCC[C@H]1CN(Cc1ncc(C)[nH]1)C2.Cl [Compound 153, 4-((1R,5S,9r)-9-methoxy-3-((5-methyl-1H-imidazol-2-yl)methyl)-3-azabicyclo[3.3.1]nonan-9-yl)picolinamide Hydrochloride]
Male Sprague-Dawley rats [2]; minimum dose at which maximal reversal (MEMD) of weight bearing was achieved, subcutaneous administration
  MEMO SC CFA: 1 mg/kg

## CO[C@@]12CC[C@@]3(C[C@@H]1[C@](C)(O)C(C)(C)C)[C@H]1Cc4ccc(O)c5c4[C@@]3(CCN1CC1CC1)[C@H]2O5 [Buprenorphine, buprenorphine, reference compound]
Male Sprague-Dawley rats [2]; in vivo
  MEMO SC CFA: 0.1 mg/kg

## CCOC1(c2cc(C(N)=O)ccc2F)C2CCCC1CN(C)C2 (stereo not drawn) [Compound 194]
Human μ opioid receptor
  EC50: 10 to 75 nM
